Reference: ChEMBL document CHEMBL4402535, “Ellagic acid a multi-target bioactive compound for drug discovery in CNS? A narrative review” (Eur J Med Chem, 2019)

Legend:
Salmon testes DNA = assay: Binding affinity to salmon DNA isolated from testis using dopamine as substrate in presence of CuCl2; assay type: nucleic-acid assay, Salmonidae
[1] = molecular target: T1, Amyloid-beta precursor protein (Homo sapiens, UniProt P05067); assay: Inhibition of beta amyloid in human SH-SY5Y cells; assay type: cell-based
T1 sequence (P05067 whole entry): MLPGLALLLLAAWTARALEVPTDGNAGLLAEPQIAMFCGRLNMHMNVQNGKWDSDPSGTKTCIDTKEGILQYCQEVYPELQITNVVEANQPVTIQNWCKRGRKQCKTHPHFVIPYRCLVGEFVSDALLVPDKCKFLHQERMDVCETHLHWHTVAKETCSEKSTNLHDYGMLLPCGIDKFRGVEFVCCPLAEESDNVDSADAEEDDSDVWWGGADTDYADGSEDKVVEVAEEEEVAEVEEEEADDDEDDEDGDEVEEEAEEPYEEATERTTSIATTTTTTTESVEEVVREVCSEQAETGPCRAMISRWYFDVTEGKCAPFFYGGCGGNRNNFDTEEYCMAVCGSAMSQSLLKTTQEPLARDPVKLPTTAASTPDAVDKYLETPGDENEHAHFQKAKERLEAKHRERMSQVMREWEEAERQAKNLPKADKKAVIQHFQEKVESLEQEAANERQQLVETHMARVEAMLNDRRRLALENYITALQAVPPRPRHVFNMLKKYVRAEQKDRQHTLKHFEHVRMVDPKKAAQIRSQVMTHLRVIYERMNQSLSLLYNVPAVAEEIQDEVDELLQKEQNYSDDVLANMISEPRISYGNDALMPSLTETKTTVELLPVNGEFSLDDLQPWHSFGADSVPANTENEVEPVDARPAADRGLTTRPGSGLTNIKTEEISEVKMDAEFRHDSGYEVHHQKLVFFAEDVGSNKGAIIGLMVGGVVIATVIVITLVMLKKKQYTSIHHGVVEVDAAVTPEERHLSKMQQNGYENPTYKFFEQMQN

[2] = molecular target: T1, Amyloid-beta precursor protein; assay: Inhibition of beta amyloid (unknown origin) after 12 to 24 hrs
Acetylcholinesterase = Acetylcholinesterase (Electrophorus electricus, UniProt O42275); assay: Inhibition of electric eel AChE using acetylthiocholine iodide as substrate measured at 1 min intervals for 5 mins by Ellman's method
Acetylcholinesterase, sequence (O42275 whole entry): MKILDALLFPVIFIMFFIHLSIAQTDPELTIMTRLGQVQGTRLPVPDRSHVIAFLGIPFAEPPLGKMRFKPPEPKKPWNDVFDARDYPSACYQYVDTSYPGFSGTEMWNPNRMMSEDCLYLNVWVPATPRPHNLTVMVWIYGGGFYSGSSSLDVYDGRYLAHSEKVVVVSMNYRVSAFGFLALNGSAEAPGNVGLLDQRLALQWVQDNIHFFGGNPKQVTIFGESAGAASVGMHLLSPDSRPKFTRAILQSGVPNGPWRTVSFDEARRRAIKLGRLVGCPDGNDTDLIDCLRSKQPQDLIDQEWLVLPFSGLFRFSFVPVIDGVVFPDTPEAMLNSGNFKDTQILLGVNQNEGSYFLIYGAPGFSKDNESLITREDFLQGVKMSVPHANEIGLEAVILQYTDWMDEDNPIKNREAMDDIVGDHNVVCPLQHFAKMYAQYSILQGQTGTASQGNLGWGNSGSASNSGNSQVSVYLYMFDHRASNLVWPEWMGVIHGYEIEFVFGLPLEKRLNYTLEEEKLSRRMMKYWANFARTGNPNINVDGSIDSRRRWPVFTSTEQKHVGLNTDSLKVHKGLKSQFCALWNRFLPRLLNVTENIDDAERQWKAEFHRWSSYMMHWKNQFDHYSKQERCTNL

[3] = Antioxidant activity assessed as DPPH radical scavenging activity after 1 hr; assay type: functional
[4] = Antioxidant activity assessed as DPPH radical scavenging activity; assay type: functional
[5] = molecular target: Acetylcholinesterase (Electrophorus electricus) (UniProt O42275); assay: Inhibition of electric eel AChE using acetylthiocholine iodide as substrate
Acetylcholinesterase (Electrophorus electricus), sequence (O42275 24-633 limits assumed): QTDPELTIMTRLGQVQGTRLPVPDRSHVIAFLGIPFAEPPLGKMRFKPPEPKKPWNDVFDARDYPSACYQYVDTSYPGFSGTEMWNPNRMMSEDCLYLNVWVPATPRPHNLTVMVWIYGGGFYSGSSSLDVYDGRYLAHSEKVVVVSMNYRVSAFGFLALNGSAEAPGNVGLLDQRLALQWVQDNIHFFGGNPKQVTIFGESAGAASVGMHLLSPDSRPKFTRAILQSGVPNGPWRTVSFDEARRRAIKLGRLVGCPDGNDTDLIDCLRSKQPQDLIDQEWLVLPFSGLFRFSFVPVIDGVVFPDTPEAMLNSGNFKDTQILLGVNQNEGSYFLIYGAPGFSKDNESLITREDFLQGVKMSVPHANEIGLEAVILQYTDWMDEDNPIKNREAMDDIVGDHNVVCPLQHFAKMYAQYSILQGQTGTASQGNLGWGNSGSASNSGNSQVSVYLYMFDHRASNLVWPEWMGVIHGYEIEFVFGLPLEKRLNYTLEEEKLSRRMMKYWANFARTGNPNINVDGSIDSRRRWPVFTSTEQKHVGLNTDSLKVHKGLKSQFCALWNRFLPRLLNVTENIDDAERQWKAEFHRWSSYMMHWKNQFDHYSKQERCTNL

[6] = molecular target: Cholinesterase (Equus caballus) (UniProt P81908); assay: Inhibition of equine serum BuChE using S-butyrylthiocholine chloride as substrate
Cholinesterase (Equus caballus), sequence (P81908 whole entry): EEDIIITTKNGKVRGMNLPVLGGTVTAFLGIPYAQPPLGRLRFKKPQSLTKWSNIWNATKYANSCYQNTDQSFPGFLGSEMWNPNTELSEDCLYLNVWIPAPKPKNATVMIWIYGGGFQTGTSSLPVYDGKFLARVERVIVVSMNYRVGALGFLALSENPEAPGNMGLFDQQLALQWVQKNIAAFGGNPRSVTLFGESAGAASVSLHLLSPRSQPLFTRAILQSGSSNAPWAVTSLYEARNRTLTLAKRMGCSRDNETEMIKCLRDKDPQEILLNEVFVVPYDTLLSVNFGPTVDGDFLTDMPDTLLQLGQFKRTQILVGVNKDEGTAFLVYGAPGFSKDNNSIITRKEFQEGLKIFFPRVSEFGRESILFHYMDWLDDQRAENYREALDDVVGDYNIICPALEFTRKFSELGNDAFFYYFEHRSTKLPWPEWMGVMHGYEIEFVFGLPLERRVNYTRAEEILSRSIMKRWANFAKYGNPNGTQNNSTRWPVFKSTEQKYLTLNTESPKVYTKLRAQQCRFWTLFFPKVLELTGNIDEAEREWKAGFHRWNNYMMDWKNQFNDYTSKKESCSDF

[7] = molecular target: T2, Amine oxidase [flavin-containing] A (Homo sapiens, UniProt P21397); assay: Inhibition of MAO-A (unknown origin)
T2 sequence (P21397 whole entry): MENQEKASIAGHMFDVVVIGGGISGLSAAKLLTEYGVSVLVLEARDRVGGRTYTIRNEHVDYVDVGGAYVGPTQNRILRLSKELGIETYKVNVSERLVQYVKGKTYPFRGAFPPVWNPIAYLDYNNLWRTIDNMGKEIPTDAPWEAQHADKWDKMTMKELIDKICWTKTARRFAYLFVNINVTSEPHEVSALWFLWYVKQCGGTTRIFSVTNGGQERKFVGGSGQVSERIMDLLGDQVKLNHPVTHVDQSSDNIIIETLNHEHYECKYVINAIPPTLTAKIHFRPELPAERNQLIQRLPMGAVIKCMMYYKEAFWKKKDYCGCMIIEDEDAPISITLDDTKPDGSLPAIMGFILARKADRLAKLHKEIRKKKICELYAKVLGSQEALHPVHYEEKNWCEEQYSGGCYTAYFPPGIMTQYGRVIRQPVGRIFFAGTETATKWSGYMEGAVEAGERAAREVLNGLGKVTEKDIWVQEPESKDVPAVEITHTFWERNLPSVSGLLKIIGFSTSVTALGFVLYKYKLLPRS

[8] = Antioxidant activity assessed as O2 radical scavenging activity after 1 hr; assay type: functional
[9] = Antioxidant activity assessed as NO radical scavenging activity after 1 hr; assay type: functional

O=c1oc2c(O)c(O)cc3c(=O)oc4c(O)c(O)cc1c4c23 [ELLAGIC ACID]
IC50 (Salmon testes DNA): 1 to 150 µM | IC50 [1]: 300 µM | IC50 [2]: 100 to 300 µM | IC50 (Acetylcholinesterase): 133 µM | IC50 [3]: 31.1 µM | EC50 [4]: 6.9 µM | EC24 [5]: 250 µM | EC16 [6]: 250 µM | EC50 [7]: 1.6 µM | EC50 [8]: 177 µM | EC50 [9]: 24.2 µM
